Experimental data published in patent US7060712B2, “Crystalline form of aryl aniline β2 adrenergic receptor agonist” (Theravance, Inc., priority 2003, dated 2006).

Assay: Solid state stability testing on storage
Assay type: physicochemical
Experimental: Samples (20 and 80 mg each) of the Form A material produced by the process of Example 7 were stored at 25° C. and 60% relative humidity and at 40° C. and 75% relative humidity in open containers and in closed containers.
X-ray powder diffraction patterns were obtained with a Shimadzu 6000 diffractometer using Cu Kα (40.0 kV, 35.0 mA) radiation. The analysis was performed with the goniometer running in continuous-scan mode of 2°/min with a step size of 0.020 over a range of 4 to 45°. Samples were prepared on glass specimen holders as a thin layer of powdered material. The instruments was calibrated to a silicon metal standard.
Differential scanning calorimetry traces were obtained with a TA instruments model DSCQ10. Samples were placed in sealed aluminum pans for analysis with an empty pan serving as the reference. Samples were equilibrated at 30° C. and heated at 5° C. per minute to a temperature of 300° C. The instrument was calibrated with an indium standard.
Thermogravimetric analysis was conducted using a TA instruments model Q50. Samples were weighed in aluminum pans and heated from 30° C. to 300° C. at a rate of 5° C./min.
HPLC analysis was performed using reverse phase conditions and a gradient of 2% to 90% acetonitrile over 6 minutes. Solvents contain 0.1% trifluoroacetic acid. Column: Zorbax 2.1×50 mm, flow rate 0.5 mL/min, observed wavelength 214 nm.

[1] = solid stored four weeks at 25° C. and 60% relative humidity in closed containers

## COc1ccc(Nc2ccc(CCNC[C@H](O)c3ccc(O)c4[nH]c(=O)ccc34)cc2)cc1-c1ccccc1.Cl [Form A, N-{2-[4-(3-phenyl-4-methoxyphenyl)aminophenyl]ethyl}-(R)-2-hydroxy-2-(8-hydroxy-2(1H)-quinolinon-5-yl)ethylamine monohydrochloride water/isopropanol solvate]
Four weeks at 25° C. and 60% humidity in closed containers
  stability upon storage (HPLC degradant peaks; DSC, TGA and XRPD traces): stable
[1]
  changes in analysis by DSC and TGA: no detectable differences
  chemical degradation, analysis by HPLC: no detectable chemical degradation
Solid stored in open containers over four weeks (25° C./60% RH and 40° C./75% RH)
  solvent content on storage in open containers: loss of isopropanol
